Patent US5198433A, “Lactamimides as calcium antagonists” (Merrell Dow Pharmaceuticals Inc., priority 1992, dated 1993)

Legend:
[1] = target: [^3 H]d-cis-diltiazem binding to rat whole brain membranes (calcium ion-channel protein); test: [^3 H]d-cis-Diltiazem binding assay (displacement from rat whole brain membranes); set-up: species or system rat (male Sprague-Dawley); settings: for IC50: ligand […]
Protocol: The whole brain from male Sprague-Dawley rats (200-300 g) was dissected and homogenized in cold 50 mM Tris-HCl buffer (pH 7.4) for 2 x 30 second periods by Polytron (Brinkmann, setting No. 5). The homogenate was washed 2 times (48,000 ×g for 10 minutes, 4° C.) with intermittent resuspension of the pellet in fresh buffer. The final pellet was resuspended to an original tissue concentration of 100 mg/ml in Tris-HCl buffer. […] The reaction was terminated by rapid filtration under a vacuum through 0.05% polyethylenimine-pretreated Whatman GF/B glass fiber filters. Filters were immediately washed 2 times with 4 ml of cold Tris-HCl buffer. Pretreatment of the filters with 0.05% polyethylenimine served to eliminate [^3 H]d-cis-diltiazem binding to the filter. The filters were dried and the radioactivity in the filters was extracted overnight in scintillation fluid.

[2] = target: T1, [^3 H]nitrendipine binding to rat heart membranes (calcium ion-channel protein) (Rattus norvegicus, UniProt P22002); test: [^3 H]Nitrendipine binding assay (enhancement of binding to rat heart membranes); set-up: species or system rat (male Sprague-Dawley); settings: ligand 0.1 nM, mean ± SEM; for activity at 1 µM: 10^-6 M; for activity at 0.1 µM: 10^-7 M
T1 construct: Membranes were prepared from the hearts of male Sprague-Dawley rats; from tissue; host or cells: heart membranes of male Sprague-Dawley rats
T1 sequence (P22002 whole entry, other chains not shown): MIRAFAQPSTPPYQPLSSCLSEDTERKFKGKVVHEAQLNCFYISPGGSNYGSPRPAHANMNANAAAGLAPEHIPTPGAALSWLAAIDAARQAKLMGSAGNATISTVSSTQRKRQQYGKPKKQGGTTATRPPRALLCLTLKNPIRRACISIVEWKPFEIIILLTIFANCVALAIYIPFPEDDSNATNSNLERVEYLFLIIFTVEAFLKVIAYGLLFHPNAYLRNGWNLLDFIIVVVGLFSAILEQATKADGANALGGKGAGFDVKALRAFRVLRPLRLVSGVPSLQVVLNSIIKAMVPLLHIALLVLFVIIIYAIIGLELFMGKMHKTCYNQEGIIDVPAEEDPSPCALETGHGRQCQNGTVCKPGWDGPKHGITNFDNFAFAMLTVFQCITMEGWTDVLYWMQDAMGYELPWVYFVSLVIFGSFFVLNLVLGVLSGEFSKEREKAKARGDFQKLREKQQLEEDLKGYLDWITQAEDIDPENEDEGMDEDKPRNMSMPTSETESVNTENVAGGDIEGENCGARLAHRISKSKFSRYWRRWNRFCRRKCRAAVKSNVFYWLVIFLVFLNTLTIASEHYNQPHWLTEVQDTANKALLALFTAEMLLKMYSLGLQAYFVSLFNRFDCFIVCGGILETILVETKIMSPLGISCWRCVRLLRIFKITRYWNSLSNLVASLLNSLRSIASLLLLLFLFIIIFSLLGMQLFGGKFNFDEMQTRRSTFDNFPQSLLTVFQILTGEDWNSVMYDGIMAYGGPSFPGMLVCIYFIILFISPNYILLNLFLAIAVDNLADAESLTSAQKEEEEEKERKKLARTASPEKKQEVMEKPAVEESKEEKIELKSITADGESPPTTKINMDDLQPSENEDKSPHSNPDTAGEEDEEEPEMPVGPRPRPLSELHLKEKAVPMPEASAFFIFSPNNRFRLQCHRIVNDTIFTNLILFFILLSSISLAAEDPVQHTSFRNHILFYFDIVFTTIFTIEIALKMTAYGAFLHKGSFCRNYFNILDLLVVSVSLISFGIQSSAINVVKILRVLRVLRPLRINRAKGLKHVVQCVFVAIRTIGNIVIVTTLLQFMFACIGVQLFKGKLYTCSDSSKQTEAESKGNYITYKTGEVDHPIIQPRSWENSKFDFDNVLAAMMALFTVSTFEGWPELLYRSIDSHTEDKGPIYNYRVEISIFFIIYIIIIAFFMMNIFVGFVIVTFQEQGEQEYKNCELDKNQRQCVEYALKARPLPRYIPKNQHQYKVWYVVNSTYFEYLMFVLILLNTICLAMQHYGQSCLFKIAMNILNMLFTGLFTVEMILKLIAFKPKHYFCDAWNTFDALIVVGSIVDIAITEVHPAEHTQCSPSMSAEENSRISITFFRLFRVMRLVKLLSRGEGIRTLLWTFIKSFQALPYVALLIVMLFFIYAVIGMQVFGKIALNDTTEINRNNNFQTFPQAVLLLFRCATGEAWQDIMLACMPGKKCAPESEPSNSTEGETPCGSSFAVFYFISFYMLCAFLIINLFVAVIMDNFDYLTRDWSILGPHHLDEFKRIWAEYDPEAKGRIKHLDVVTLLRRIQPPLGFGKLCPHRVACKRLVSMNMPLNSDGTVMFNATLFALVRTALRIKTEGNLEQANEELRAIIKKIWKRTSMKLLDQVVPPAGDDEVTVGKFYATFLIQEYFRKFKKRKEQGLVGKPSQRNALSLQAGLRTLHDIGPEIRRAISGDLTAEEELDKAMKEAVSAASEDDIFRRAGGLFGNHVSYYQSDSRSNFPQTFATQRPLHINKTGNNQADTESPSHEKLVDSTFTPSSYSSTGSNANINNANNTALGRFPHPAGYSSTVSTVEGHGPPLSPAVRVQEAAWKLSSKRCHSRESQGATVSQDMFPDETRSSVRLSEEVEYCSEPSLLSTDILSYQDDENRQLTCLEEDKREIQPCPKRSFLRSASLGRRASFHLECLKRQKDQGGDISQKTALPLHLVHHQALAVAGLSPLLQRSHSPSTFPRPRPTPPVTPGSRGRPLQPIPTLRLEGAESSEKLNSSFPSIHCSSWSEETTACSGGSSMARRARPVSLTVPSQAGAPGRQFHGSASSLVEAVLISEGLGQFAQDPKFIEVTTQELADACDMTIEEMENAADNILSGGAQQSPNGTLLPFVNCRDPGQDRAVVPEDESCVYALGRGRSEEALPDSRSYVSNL
T1 sequence (P54290 25-945 partner limits assumed, other chains not shown): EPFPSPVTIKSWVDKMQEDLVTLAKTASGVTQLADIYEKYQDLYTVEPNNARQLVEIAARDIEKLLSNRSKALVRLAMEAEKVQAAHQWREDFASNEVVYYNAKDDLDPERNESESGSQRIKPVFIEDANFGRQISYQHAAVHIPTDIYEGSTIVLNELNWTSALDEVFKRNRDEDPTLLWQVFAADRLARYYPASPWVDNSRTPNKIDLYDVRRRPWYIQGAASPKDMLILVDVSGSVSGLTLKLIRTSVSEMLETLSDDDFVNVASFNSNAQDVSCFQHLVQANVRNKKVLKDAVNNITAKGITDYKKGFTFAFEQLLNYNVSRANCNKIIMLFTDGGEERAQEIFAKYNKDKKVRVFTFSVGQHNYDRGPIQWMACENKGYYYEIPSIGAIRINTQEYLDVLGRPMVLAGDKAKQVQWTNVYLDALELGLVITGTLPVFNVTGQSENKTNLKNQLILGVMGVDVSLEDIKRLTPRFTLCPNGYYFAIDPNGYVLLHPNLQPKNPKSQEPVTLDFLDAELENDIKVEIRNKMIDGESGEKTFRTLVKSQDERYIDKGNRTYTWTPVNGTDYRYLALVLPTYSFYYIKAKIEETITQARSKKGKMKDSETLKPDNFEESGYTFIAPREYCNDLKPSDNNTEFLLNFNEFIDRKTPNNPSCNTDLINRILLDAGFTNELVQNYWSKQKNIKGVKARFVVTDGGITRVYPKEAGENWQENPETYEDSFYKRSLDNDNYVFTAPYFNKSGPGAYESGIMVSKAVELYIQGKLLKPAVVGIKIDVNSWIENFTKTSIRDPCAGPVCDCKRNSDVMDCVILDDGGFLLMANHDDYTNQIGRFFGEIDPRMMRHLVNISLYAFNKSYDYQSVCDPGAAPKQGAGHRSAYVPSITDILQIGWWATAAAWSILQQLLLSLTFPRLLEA
T1 sequence (P54290 946-1091 partner limits assumed, other chains not shown): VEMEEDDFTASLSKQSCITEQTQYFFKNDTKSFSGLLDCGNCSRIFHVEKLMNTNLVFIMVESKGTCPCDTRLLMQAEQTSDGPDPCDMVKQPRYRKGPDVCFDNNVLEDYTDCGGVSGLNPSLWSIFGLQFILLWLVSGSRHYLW
Protocol: Membranes were prepared from the hearts of male Sprague-Dawley rats and [^3 H]nitrendipine binding was conducted as described in detail by H. R. Lee, et al., J. Pharmacol Exp. Ther. 233:611-616, (1985), as modified by F. J. Ehlert, et al., Biochem. Biophys. Rec. Common. 104:937-943, (1982). The ability of compounds tested at 10^-6 and 10^-7 M to enhance [^3 H]nitredepine binding was taken as indicative of diltiazem-like calcium antagonistic properties.
Values are the mean ± SEM of single experiments run in triplicate at
the concentrations of drugs indicated. Ligand concentration was 0.1 nM an
control specific binding was 49.6 ± 1.7 fmol/mg protein.

[3] = target: T2, K^+ -depolarized guinea pig ileum or taenia (Cavia porcellus); test: Antagonism of Ca^++ -induced contractions of K^+ -depolarized guinea pig taenia or ileum; type: cell-based; settings: FIG. 6; 40 mM K^+ -depolarized guinea pig ileum
T2 construct: pieces of ileum, 2 cm in length, from male guinea pigs (200-400 g) were set up in isolated organ baths; from tissue; host or cells: strips of taenia from the caecum or pieces of ileum of male guinea pigs
Protocol: Strips of taenia from the caecum or pieces of ileum, 2 cm in length, from male guinea pigs (200-400 g) were set up in isolated organ baths in Ca^++ -free K^+ Tyrode's solution (mM NaCl 137, KCl 40, NaH2 PO4 0.4, NaHCO3 11.9, glucose 5.5) and gassed with 95% O2, 5% CO2 at 37° C. Contractions were measured with isotonic transducers with a 1 g load. Cumulative dose-response curves were obtained. Tissues were then washed and incubated with the compounds for 20-25 minutes and then Ca^++ concentration response curves re-established. […] Dose ratios were determined graphically at ED50 values from the Ca^++ dose-response curve and Schild plots were constructed to determine pA2 value using inverse regression line analysis. Alternatively, when only one concentration of an antagonist was used, pA2 values were calculated according to the method of J. M. Van Rossum, Arch. Int. Pharmacodyn Ther. 143: 299-330 (1963).

[4] = system: [3H]nitrendipine binding in rat cerebral cortical and cardiac homogenates; settings: cited from earlier work
adenylate cyclase = settings: a number of tissues; cited from earlier work
[5] = system: isolated guinea pig hearts; settings: cited from earlier work
calcium currents = settings: potency compared with diltiazem; cited from earlier work

c1ccc([C@H]2CCC[C@H]2N=C2CCCCCCCCCCCN2)cc1 (relative stereo) [Test Compound 3, 2-[(cis-2-phenylcyclopentyl)imino]azacyclotridecane]
IC50 ([1]; 25° C.): 280 ± 30 nM
IC50 ([1]; 37° C.): 403 ± 77 nM
pKi ([1]; Table 1, displacement of 3H diltiazem, rat brain membranes, 25° C., n = 3, Cheng & Prusoff): 6.41
activity at 1 µM ([2]; 25° C.): 112 ± 2%
activity at 0.1 µM ([2]; 25° C.): 102 ± 1%
activity at 1 µM ([2]; 37° C.): 165 ± 13%
activity at 0.1 µM ([2]; 37° C.): 141 ± 8%
mean pA2 value (95% confidence interval), Schild plot [3]: 6.66 (6.31-7.44)
mean slope (±S.D.) of Schild plot [3]: 0.89 (0.16)
effect on [3H]nitrendipine binding [4]: enhanced [3H]nitrendipine binding in rat cerebral cortical and cardiac homogenates in a similar manner to diltiazem
inhibition of stimulated adenylate cyclase activity (adenylate cyclase): inhibit stimulated adenylate cyclase activity in a number of tissues
reversal of inotropic and chronotropic effects by calcium ([5]; administration of calcium): reversed by the administration of calcium
inotropic and chronotropic effects [5]: negative inotropic and chronotropic effects
effect on calcium currents (calcium currents): selectively reduced calcium currents with a potency similar to diltiazem
